Article PMC11111955, “Safety and efficacy evaluation of halicin as an effective drug for inhibiting intestinal infections” (Frontiers in Pharmacology, 2024)

Columns and labels:
TA100 = test: Ames test; format: cell-based, Salmonella typhimurium; details: TA100, -S9, 1 μg/plate
Method: (§1) The experiments were performed in triplicate.

WP2uvApKM101 = test: Ames test; format: cell-based, Escherichia coli
Method: as §1

TA98 = test: Ames test; format: cell-based, Salmonella typhimurium; details: TA98, -S9, 50 μg/plate
Method: as §1

TA97a = test: Ames test; format: cell-based, Salmonella typhimurium; details: -S9, 50 μg/plate
Method: as §1

[1] = system: bone marrow polychromatic erythrocytes; test: Micronucleus experiment of mammalian bone marrow cells; details: positive control group, 40 mg/kg cyclophosphamide
mouse bone marrow cells = details: positive control group, 40 mg/kg cyclophosphamide
Mouse spermatozoa = details: positive control group, 40 mg/kg cyclophosphamide

SMILES: COS(C)(=O)=O [MSM, methyl methanesulfonate]
- Ames test bacterial counts (TA100): 3,042 ± 69.3
- Ames test bacterial counts (WP2uvApKM101; WP2uvApKM101, -S9, 1 μg/plate): 926 ± 45.3

SMILES: Nc1ccc2cc3ccccc3cc2c1 [2-AT, 2-Aminoanthracene]
- Ames test bacterial counts (WP2uvApKM101; WP2uvApKM101, +S9, 10 μg/plate): 546 ± 26.9

SMILES: CN(C)c1ccc(N=NS(=O)(=O)O)cc1 [DDT, fenaminosulf]
- Ames test bacterial counts (TA98): 2,985 ± 76.4
- Ames test bacterial counts (TA97a): 3,451 ± 53.7

SMILES: O=P1(N(CCCl)CCCl)NCCCO1 (centres unmarked) [Positive, cyclophosphamide]
- PCE micronucleus (‰) ([1]; Female mice): 18.8 ± 1.9 ‰
- PCE/RBC ([1]; Female mice): 0.5 ± 0.04
- PCE micronucleus (‰) ([1]; Male mice): 18.8 ± 2.6 ‰
- PCE/RBC ([1]; Male mice): 0.51 ± 0.09
- Chromosome aberration (%) (mouse bone marrow cells): 18.6 ± 7.67%
- Number of cells with chromosome aberration (mouse bone marrow cells; of 5 × 100 cells at metaphase): 93
- Abnormal ratio (%) (Mouse spermatozoa; male ICR mice): 8.34 ± 0.47%
- Number of sperm abnormality (Mouse spermatozoa; male ICR mice, of 5 × 1,000 sperms observed): 417
- Abnormal sperms counted ratio (%): Amorphous (Mouse spermatozoa): 48.33 ± 4.33%
- Abnormal sperms counted ratio (%): Banana shape (Mouse spermatozoa): 10.58 ± 1.46%
- Abnormal sperms counted ratio (%): Kinks tail (Mouse spermatozoa): 5.76 ± 0.94%
- Abnormal sperms counted ratio (%): Large round head (Mouse spermatozoa): 9.37 ± 1.03%
- Abnormal sperms counted ratio (%): No hook (Mouse spermatozoa): 10.07 ± 1.23%
- Abnormal sperms counted ratio (%): Two head (Mouse spermatozoa): 5.52 ± 1.36%
- Abnormal sperms counted ratio (%): Two tail (Mouse spermatozoa): 4.84 ± 1.99%
